Laboratory results from patent US20240092784A1, “CONDENSED HETEROCYCLIC COMPOUND” (NISSAN CHEMICAL CORPORATION, priority 2020, published 2024).

Biological target: human SPR (Homo sapiens (Human), UniProt P35270)
Test: Evaluation Example 2: Measurement of human SPR inhibitory activity (seven concentrations, sepiapterin absorbance at 420 nm)
Type: biochemical
Details: Evaluation Example 2, seven concentrations 0.14 nM to 100 nM, 240 minutes at room temperature, read-out: IC50
Outline: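 Reactions ran 240 min at room temperature in 100 mM Tris-HCl pH 7.5 with 0.01% BSA. They contained tag-cleaved, E. coli-expressed full-length human SPR (diluted to 150 ng/mL), seven compound concentrations from 0.14 to 100 nM, and sepiapterin/NADPH added as a 120 μM/160 μM solution. Inhibition was calculated from sepiapterin absorbance at 420 nm.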

Sequence of human SPR (P35270 whole entry): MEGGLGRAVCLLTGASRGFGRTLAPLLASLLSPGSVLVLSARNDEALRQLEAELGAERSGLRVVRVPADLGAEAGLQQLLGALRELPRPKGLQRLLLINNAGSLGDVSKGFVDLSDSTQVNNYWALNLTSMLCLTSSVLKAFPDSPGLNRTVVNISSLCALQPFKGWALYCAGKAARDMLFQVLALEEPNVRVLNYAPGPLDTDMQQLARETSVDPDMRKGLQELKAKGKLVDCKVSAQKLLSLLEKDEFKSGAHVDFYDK

| Compound | IC50 [nM] |
| --- | --- |
| Cc1nn2c(O)c(C(=O)NC3CC3)c(=O)n(CC(C)C)c2c1/C=C/C(=O)N1[C@H](C)CC[C@@H]1C [Synthesis Example 618, N-Cyclopropyl-3-((E)-3-(cis-2,5-dimethylpyrrolidin-1-yl)-3-oxoprop-1-en-1-yl)-7-hydroxy-4-isobutyl-2-methyl-5-oxo-4,5-dihydropyrazolo[1,5-a]pyrimidine-6-carboxamide] | 1.8 |
| Cc1nn2c(O)c(C(=O)NC3CC3)c(=O)n(CC(C)C)c2c1/C=C/C(=O)N1CCCC1C1CC1 (centres unmarked) [Synthesis Example 619, (E)-N-Cyclopropyl-3-(3-(2-cyclopropylpyrrolidin-1-yl)-3-oxoprop-1-en-1-yl)-7-hydroxy-4-isobutyl-2-methyl-5-oxo-4,5-dihydropyrazolo[1,5-a]pyrimidine-6-carboxamide] | 1.58 |
| COC[C@H]1CCN(C(=O)/C=C/c2c(C)nn3c(O)c(C(=O)NC4CC4)c(=O)n(CC(C)C)c23)C1 [Synthesis Example 620, (S,E)-N-Cyclopropyl-7-hydroxy-4-isobutyl-3-(3-(3-(methoxymethyl)pyrrolidin-1-yl)-3-oxoprop-1-en-1-yl)-2-methyl-5-oxo-4,5-dihydropyrazolo[1,5-a]pyrimidine-6-carboxamide] | 1.17 |
| COC[C@@H]1CCN(C(=O)/C=C/c2c(C)nn3c(O)c(C(=O)NC4CC4)c(=O)n(CC(C)C)c23)C1 [Synthesis Example 621, (R,E)-N-Cyclopropyl-7-hydroxy-4-isobutyl-3-(3-(3-(methoxymethyl)pyrrolidin-1-yl)-3-oxoprop-1-en-1-yl)-2-methyl-5-oxo-4,5-dihydropyrazolo[1,5-a]pyrimidine-6-carboxamide] | 1.42 |
| Cc1nn2c(O)c(C(=O)NC3CC3)c(=O)n(CC(C)C)c2c1/C=C/C(=O)N1CCC(C(F)F)C1 (centres unmarked) [Synthesis Example 622, (E)-N-Cyclopropyl-3-(3-(3-(difluoromethyl)pyrrolidin-1-yl)-3-oxoprop-1-en-1-yl)-7-hydroxy-4-isobutyl-2-methyl-5-oxo-4,5-dihydropyrazolo[1,5-a]pyrimidine-6-carboxamide] | 1.03 |
| Cc1nn2c(O)c(C(=O)NC3CC3)c(=O)n(CC(C)C)c2c1/C=C/C(=O)N1CC[C@H](C(C)(C)O)C1 [Synthesis Example 623, (S,E)-N-Cyclopropyl-7-hydroxy-3-(3-(3-(2-hydroxypropan-2-yl)pyrrolidine-1-yl)-3-oxoprop-1-en-1-yl)-4-isobutyl-2-methyl-5-oxo-4,5-dihydropyrazolo[1,5-a]pyrimidine-6-carboxamide] | 1.27 |
| Cc1nn2c(O)c(C(=O)NC3CC3)c(=O)n(CC(C)(C)C)c2c1/C=C/C(=O)N1[C@@H](C)COC[C@@H]1C [Synthesis Example 624, N-Cyclopropyl-3-((E)-3-((3S,5S)-3,5-dimethylmorpholino)-3-oxoprop-1-en-1-yl)-7-hydroxy-2-methyl-4-neopentyl-5-oxo-4,5-dihydropyrazolo[1,5-a]pyrimidine-6-carboxamide] | 0.98 |
| Cc1nn2c(O)c(C(=O)NC3CC3)c(=O)n(CC(C)(C)C)c2c1/C=C/C(=O)N1CCOC[C@@H]1C [Synthesis Example 625, (S,E)-N-Cyclopropyl-7-hydroxy-2-methyl-3-(3-(3-methylmorpholino)-3-oxoprop-1-en-1-yl)-4-neopentyl-5-oxo-4,5-dihydropyrazolo[1,5-a]pyrimidine-6-carboxamide] | 1.05 |
| CCc1nn2c(O)c(C(=O)NC3CC3)c(=O)n(CC(C)C)c2c1/C=C/C(=O)N1[C@@H](C)COC[C@@H]1C [Synthesis Example 626, N-Cyclopropyl-3-((E)-3-((3S,5S)-3,5-dimethylmorpholino)-3-oxoprop-1-en-1-yl)-2-ethyl-7-hydroxy-4-isobutyl-5-oxo-4,5-dihydropyrazolo[1,5-a]pyrimidine-6-carboxamide] | 0.87 |
| Cc1nn2c(O)c(C(=O)NC3CC3)c(=O)n(CC(C)(C)C)c2c1/C=C/C(=O)N1CCC(F)(F)C1 [Synthesis Example 627, (E)-N-Cyclopropyl-3-(3-(3,3-difluoropyrrolidin-1-yl)-3-oxoprop-1-en-1-yl)-7-hydroxy-2-methyl-4-neopentyl-5-oxo-4,5-dihydropyrazolo[1,5-a]pyrimidine-6-carboxamide] | 0.94 |
| Cc1nn2c(O)c(C(=O)NC3CC3)c(=O)n(CC(C)C)c2c1/C=C/C(=O)N1C[C@H]2COC[C@H]2C1 [Synthesis Example 628, N-Cyclopropyl-7-hydroxy-4-isobutyl-2-methyl-5-oxo-3-((E)-3-oxo-3-((3aR,6aS)-tetrahydro-1H-furo[3,4-c]pyrrol-5(3H)-yl)prop-1-en-1-yl)-4,5-dihydropyrazolo[1,5-a]pyrimidine-6-carboxamide] | 0.84 |
| Cc1nn2c(O)c(C(=O)NC3CC3)c(=O)n(CC(C)C)c2c1/C=C/C(=O)N1CCC[C@@H]1C(C)C [Synthesis Example 629, (R,E)-N-Cyclopropyl-7-hydroxy-4-isobutyl-3-(3-(2-isopropylpyrrolidin-1-yl)-3-oxoprop-1-en-1-yl)-2-methyl-5-oxo-4,5-dihydropyrazolo[1,5-a]pyrimidine-6-carboxamide] | 1.14 |
| Cc1nn2c(O)c(C(=O)NC3CC3)c(=O)n(CC(C)C)c2c1/C=C/C(=O)N1CCC[C@H]1C(C)C [Synthesis Example 630, (S,E)-N-Cyclopropyl-7-hydroxy-4-isobutyl-3-(3-(2-isopropylpyrrolidin-1-yl)-3-oxoprop-1-en-1-yl)-2-methyl-5-oxo-4,5-dihydropyrazolo[1,5-a]pyrimidine-6-carboxamide] | 1.24 |
| Cc1nn2c(O)c(C(=O)NC3CC3)c(=O)n(CC(C)C)c2c1/C=C/C(=O)N1CCCC12CCOCC2 [Synthesis Example 631, (E)-N-Cyclopropyl-7-hydroxy-4-isobutyl-2-methyl-5-oxo-3-(3-oxo-3-(8-oxa-1-azaspiro[4.5]decan-1-yl)prop-1-en-1-yl)-4,5-dihydropyrazolo[1,5-a]pyrimidine-6-carboxamide] | 0.66 |
| Cc1nn2c(O)c(C(=O)NC3CC3)c(=O)n(CC(C)C)c2c1/C=C/C(=O)N1CCC[C@@H]1C(F)F [Synthesis Example 632, (R,E)-N-Cyclopropyl-3-(3-(2-(difluoromethyl)pyrrolidin-1-yl)-3-oxoprop-1-en-1-yl)-7-hydroxy-4-isobutyl-2-methyl-5-oxo-4,5-dihydropyrazolo[1,5-a]pyrimidine-6-carboxamide] | 1.51 |
| Cc1nn2c(O)c(C(=O)NC3CC3)c(=O)n(CC(C)C)c2c1/C=C/C(=O)N1CCC[C@H]1c1cccnc1 [Synthesis Example 633, (S,E)-N-Cyclopropyl-7-hydroxy-4-isobutyl-2-methyl-5-oxo-3-(3-oxo-3-(2-(pyridin-3-yl)pyrrolidin-1-yl)prop-1-en-1-yl)-4,5-dihydropyrazolo[1,5-a]pyrimidine-6-carboxamide] | 0.91 |
| Cc1nn2c(O)c(C(=O)NC3CC3)c(=O)n(CC(C)C)c2c1/C=C/C(=O)N1CCC[C@H]1C(F)F [Synthesis Example 634, (S,E)-N-Cyclopropyl-3-(3-(2-(difluoromethyl)pyrrolidin-1-yl)-3-oxoprop-1-en-1-yl)-7-hydroxy-4-isobutyl-2-methyl-5-oxo-4,5-dihydropyrazolo[1,5-a]pyrimidine-6-carboxamide] | 1.21 |
